# ChEMBL document CHEMBL1144295, “Active site directed inhibitors of replication-specific bacterial DNA polymerases” (Bioorg Med Chem Lett, 2005)
# Key:
# [1] = target: T1, DNA polymerase III PolC-type (Bacillus subtilis (strain 168), UniProt P13267); test: Inhibitory constant against DNA polymerases IIIC produced by Bacillus subtilis; (a)
# [2] = target: T2, DNA polymerase III subunit alpha (Escherichia coli K-12, UniProt P10443); test: Inhibition against DNA polymerases IIIE from Escherichia coli; (a); IN=<10% inhibition at highest concentration tested
# T2 sequence (P10443 whole entry): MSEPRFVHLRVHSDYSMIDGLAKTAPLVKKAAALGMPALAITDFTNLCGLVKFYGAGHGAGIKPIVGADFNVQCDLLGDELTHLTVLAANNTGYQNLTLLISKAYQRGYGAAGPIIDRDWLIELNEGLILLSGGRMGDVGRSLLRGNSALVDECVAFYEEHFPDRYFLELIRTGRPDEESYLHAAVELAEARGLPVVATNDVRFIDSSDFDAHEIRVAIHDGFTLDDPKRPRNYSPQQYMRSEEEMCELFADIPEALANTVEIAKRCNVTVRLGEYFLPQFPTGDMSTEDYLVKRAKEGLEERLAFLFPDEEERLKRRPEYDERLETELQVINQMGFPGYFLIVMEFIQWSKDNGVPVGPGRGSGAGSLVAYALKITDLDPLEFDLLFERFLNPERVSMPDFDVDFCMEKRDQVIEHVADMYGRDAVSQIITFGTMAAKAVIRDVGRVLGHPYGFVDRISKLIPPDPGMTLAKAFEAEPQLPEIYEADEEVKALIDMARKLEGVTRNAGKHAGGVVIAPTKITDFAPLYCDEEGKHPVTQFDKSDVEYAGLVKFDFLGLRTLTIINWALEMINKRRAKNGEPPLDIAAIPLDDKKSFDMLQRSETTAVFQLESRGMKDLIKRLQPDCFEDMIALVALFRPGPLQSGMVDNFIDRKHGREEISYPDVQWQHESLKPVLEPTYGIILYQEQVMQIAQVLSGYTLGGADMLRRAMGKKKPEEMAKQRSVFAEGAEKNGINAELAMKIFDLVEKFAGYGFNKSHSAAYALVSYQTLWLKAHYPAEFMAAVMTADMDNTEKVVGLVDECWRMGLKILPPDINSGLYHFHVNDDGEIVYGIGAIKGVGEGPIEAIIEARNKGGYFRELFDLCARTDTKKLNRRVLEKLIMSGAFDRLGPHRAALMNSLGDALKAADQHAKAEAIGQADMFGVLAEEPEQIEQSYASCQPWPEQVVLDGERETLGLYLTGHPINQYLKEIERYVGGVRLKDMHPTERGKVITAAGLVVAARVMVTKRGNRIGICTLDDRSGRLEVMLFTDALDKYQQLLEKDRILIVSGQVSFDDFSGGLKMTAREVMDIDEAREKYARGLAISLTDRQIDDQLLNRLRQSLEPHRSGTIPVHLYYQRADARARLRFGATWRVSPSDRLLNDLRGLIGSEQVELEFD
# [3] = target: T3, DNA polymerase III subunit alpha (Bacillus subtilis (strain 168), UniProt O34623); test: Inhibition of DNA polymerases IIIE from Bacillus subtilis; (a); IN=<10% inhibition at highest concentration tested
# T3 sequence (O34623 whole entry): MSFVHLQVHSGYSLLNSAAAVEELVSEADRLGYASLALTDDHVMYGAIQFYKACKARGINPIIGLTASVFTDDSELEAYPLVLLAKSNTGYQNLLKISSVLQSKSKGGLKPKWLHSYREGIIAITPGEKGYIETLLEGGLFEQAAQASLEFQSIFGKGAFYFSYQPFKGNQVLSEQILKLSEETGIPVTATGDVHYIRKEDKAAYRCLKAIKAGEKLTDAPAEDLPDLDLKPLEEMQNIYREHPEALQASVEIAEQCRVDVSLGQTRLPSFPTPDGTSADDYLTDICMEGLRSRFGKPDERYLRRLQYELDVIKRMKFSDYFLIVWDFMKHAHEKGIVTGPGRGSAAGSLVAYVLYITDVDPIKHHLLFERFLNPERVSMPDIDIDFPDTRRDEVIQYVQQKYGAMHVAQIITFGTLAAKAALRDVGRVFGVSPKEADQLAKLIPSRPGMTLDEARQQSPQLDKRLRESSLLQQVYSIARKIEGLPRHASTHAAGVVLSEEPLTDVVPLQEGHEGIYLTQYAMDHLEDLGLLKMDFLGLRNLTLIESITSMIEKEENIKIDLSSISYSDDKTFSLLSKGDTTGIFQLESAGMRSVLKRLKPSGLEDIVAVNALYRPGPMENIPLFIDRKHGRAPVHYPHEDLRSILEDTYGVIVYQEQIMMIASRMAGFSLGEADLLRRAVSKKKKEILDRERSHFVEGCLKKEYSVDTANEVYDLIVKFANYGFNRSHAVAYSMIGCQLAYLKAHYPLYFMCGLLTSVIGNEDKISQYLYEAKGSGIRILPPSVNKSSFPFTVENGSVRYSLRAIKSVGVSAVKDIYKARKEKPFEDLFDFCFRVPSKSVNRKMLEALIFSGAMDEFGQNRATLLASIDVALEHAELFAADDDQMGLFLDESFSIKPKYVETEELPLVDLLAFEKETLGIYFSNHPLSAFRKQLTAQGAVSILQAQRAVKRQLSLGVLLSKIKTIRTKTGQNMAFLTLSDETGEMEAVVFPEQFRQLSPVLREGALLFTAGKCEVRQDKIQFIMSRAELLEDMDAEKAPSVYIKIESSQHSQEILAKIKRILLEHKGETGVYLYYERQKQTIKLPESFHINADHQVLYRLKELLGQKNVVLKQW
# [4] = target: T1, DNA polymerase III PolC-type; test: Inhibition of DNA polymerases IIIC produced by Bacillus subtilis; (a); IN=<10% inhibition at highest concentration tested
# [5] = target: T2, DNA polymerase III subunit alpha; test: Inhibitory constant against DNA polymerases IIIE from Escherichia coli; (a)
# T1 sequence (P13267 whole entry): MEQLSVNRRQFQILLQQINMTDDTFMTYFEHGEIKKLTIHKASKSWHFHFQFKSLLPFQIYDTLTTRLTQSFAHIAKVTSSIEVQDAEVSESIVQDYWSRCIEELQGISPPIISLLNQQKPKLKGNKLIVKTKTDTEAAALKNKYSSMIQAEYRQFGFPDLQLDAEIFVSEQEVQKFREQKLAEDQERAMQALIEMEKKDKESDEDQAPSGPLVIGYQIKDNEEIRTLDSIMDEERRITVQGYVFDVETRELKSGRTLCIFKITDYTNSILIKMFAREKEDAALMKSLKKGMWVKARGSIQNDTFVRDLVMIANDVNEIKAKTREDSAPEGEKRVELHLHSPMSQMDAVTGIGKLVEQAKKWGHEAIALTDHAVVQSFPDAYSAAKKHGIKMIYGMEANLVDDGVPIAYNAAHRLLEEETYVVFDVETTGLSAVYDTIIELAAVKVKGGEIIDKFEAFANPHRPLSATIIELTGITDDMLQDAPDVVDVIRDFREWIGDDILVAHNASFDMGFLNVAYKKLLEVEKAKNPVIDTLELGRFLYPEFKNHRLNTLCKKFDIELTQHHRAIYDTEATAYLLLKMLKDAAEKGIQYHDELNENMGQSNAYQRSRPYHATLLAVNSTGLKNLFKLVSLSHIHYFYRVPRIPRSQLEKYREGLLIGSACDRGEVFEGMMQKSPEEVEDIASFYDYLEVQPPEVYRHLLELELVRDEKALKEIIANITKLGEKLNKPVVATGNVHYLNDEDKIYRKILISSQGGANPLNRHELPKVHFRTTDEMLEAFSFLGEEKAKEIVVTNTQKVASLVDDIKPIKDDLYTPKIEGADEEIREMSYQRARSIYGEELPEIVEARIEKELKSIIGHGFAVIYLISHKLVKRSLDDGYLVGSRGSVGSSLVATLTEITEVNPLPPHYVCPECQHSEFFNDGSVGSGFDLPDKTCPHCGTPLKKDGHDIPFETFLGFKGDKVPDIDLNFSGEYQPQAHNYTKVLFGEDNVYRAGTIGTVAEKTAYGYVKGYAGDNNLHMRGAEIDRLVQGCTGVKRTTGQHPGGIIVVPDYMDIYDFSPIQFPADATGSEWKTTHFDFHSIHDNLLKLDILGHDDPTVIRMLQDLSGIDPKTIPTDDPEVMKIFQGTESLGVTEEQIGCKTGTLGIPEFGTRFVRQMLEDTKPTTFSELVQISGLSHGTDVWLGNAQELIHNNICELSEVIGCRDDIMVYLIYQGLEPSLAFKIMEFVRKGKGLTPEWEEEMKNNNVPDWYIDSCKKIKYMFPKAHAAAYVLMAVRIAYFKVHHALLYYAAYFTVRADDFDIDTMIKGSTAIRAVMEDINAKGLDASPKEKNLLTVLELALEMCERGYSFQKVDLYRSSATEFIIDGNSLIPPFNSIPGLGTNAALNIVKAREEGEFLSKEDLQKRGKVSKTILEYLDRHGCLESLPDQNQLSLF
Compound,Ki [1] [nM],also measured
O=c1cc(NCc2ccc(Cl)c(CCl)c2)[nH]c(=O)[nH]1,420,–
CC(C)C(=O)OCCCCCn1cnc2nc(NCc3ccc(Cl)c(Cl)c3)[nH]c(=O)c21,370,–
CCOC(=O)CCCn1cnc2c(O)nc(NCc3ccc(Cl)c(Cl)c3)nc21,825000,–
COCCCCCn1cnc2nc(NCc3ccc(Cl)c(Cl)c3)[nH]c(=O)c21,70,–
OCCCCn1cnc2c(O)nc(NCc3ccc(Cl)c(Cl)c3)nc21,712000,–
CC(=O)O[C@H](C)CCCCn1cnc2nc(NCc3ccc(Cl)c(Cl)c3)[nH]c(=O)c21,80,–
O=C(O)CCCn1cnc2c(=O)[nH]c(NCc3ccc(Cl)c(Cl)c3)nc21,28000,–
CCOCCn1cnc2c(=O)[nH]c(NCc3ccc(Cl)c(Cl)c3)nc21,116000,–
O=c1[nH]c(NCc2ccc(Cl)c(Cl)c2)nc2ncn(CCOCCO)c12,370,–
C[C@@H](O)CCCCn1cnc2nc(NCc3ccc(Cl)c(Cl)c3)[nH]c(=O)c21,52,–
C[S+]([O-])CCCCCn1cnc2nc(NCc3ccc(Cl)c(Cl)c3)nc(O)c21 (stereo unspecified),93,–
CCc1cc(Nc2nc(O)c3c(ncn3CCCCO)n2)ccc1C,–,inhibition [2]: < 10%; inhibition [3]: < 10%
O=C(O)CCCn1cnc2nc(NCc3ccc(Cl)c(Cl)c3)nc(O)c21,170,–
CCc1cc(Nc2nc(O)c3ncn(CCCCO)c3n2)ccc1C,–,inhibition [4]: < 10%; inhibition [2]: < 10%; inhibition [3]: < 10%
CCOC(=O)CCCn1cnc2nc(NCc3ccc(Cl)c(Cl)c3)[nH]c(=O)c21,150,–
CCOCCn1cnc2nc(NCc3ccc(Cl)c(Cl)c3)[nH]c(=O)c21,330,–
CCc1cc(Nc2nc(O)c3[nH]cnc3n2)ccc1C,2700,inhibition [2]: < 10%
CSCCCCCn1cnc2nc(NCc3ccc(Cl)c(Cl)c3)[nH]c(=O)c21,230,–
CCc1cc(Nc2cc(=O)[nH]c(=O)[nH]2)ccc1C,310,Ki [5]: > 323000 nM
CS(=O)(=O)CCCCCn1cnc2nc(NCc3ccc(Cl)c(Cl)c3)nc(O)c21,280,–
Oc1[nH]c(NCc2ccc(Cl)c(Cl)c2)nc2ncnc1-2,720,–
